Laboratory results published in PubChem BioAssay (NCI).
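Each compound was tested at five concentrations against cells in 96-well plates for 48 hours. GI50 is the concentration that inhibits growth by half. TGI: total growth inhibition.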

Key:
Assay in all cases: NCI-60 cell line screen, 48 h
[1] = system: A549 NSCLC
[2] = system: ACHN renal
[3] = system: EKVX NSCLC
[4] = system: HL-60(TB) leukemia
[5] = system: OVCAR-3 ovarian
[6] = system: SF-539 CNS
[7] = system: SK-MEL-5 melanoma
[8] = system: UACC-257 melanoma
[9] = system: UACC-62 melanoma
[10] = system: DU-145 prostate

| Structure (SMILES) | TGI [1] [µM] | TGI [2] [µM] | TGI [3] [µM] | TGI [4] [µM] | TGI [5] [µM] | TGI [6] [µM] | TGI [7] [µM] | TGI [8] [µM] | TGI [9] [µM] | GI50 [1] [µM] | GI50 [2] [µM] | GI50 [10] [µM] | TGI [10] [µM] | GI50 [3] [µM] | GI50 [5] [µM] | GI50 [6] [µM] | GI50 [7] [µM] | GI50 [8] [µM] | GI50 [9] [µM] |
| --- | --- | --- | --- | --- | --- | --- | --- | --- | --- | --- | --- | --- | --- | --- | --- | --- | --- | --- | --- |
| C/C=C1/CCC2c3[nH]c4ccccc4c3CCN2C1 (stereo unspecified) | > 100 | > 100 | > 100 | > 100 | > 100 | > 100 | > 100 | > 100 | > 100 |  |  |  |  |  |  |  |  |  |  |
| O=C(NCCCCCCNC(=O)OCCSCCn1cc(C(=O)NC(=O)OCc2ccccc2)c(=O)[nH]c1=O)OCCSCCn1cc(C(=O)NC(=O)OCc2ccccc2)c(=O)[nH]c1=O | > 100 | > 100 | > 100 |  | > 100 |  | > 100 | > 100 | > 100 |  |  |  |  |  |  |  |  |  |  |
| COc1ccc(CC(=O)NCCc2ccc(OC)c(OC)c2)cc1Br | > 100 | > 100 | > 100 | > 100 |  | > 100 |  | > 100 | > 100 |  |  |  |  |  |  |  |  |  |  |
| C=C1C(=O)OC2C=C(CCC(C)=O)C(C)C(OC(C)=O)CC12 (stereo unspecified) | 55.4 | 19.7 | 26 | 8.89 | 26 | 28.5 |  |  | 27.4 |  |  |  |  |  |  |  |  |  |  |
| Cc1ccc(NC(=O)C(=O)CC(=O)c2c(C)n([O-])c3ccccc3[n+]2=O)cc1 | 87.3 | > 100 | 40.9 | 48.6 | 35.1 | 62.5 | 78.2 | 50.7 | 32.6 |  |  |  |  |  |  |  |  |  |  |
| CC(C)(CN1CCCCC1)C(=O)/C=C/c1ccc(Cl)cc1 | 14.4 | 17.2 | 10 | 4.8 | 11.9 | 5.41 | 15.1 | 19.9 | 20.2 |  |  |  |  |  |  |  |  |  |  |
| CCOC(=O)/C(=C\c1cccs1)P(=O)(OCC)OCC | 50.8 | 32.3 | 60.3 | 73.3 | 41.8 | 45.4 | 31.6 | 61 | 32.8 |  |  |  |  |  |  |  |  |  |  |
| Cc1cc(NS(=O)(=O)c2ccc(NC(=O)c3ccc(Cl)c4c(Nc5ccc(S(=O)(=O)N=C(N)N)cc5)c5ccccc5nc34)cc2)no1 |  | > 100 | > 100 |  | 83.7 | > 100 |  | > 100 | > 100 |  |  |  |  |  |  |  |  |  |  |
| COc1cc(/C=N/NC(=O)c2cnn3c2NC(c2ccccc2)C3)ccc1Oc1ccccc1 (stereo unspecified) | 5 | 7.31 | 14.3 |  | 1.31 | 2.51 | 3.94 | 15.6 | 7.3 | 1.5 | 1.33 | 1.42 | 4.84 | 2.03 | 0.346 | 1.03 | 0.734 | 2.91 | 0.888 |
| C[N+]1(C)C/C(=C\c2ccccc2)C(=O)/C(=C/c2ccccc2)C1 | > 100 | > 100 |  | > 100 | > 100 | > 100 | > 100 | > 100 |  |  |  |  |  |  |  |  |  |  |  |
| CCCC/C=C1\CCC(C)(CN(C)C)C1=O (stereo unspecified) | > 100 | > 100 | > 100 | > 100 | > 100 | > 100 | > 100 | > 100 | > 100 |  |  |  |  |  |  |  |  |  |  |
| COc1ccccc1C1c2cc3c(cc2OC(O)(CO)C1C(=O)O)OCO3 (stereo unspecified) (tested in a mixture with another compound) | > 100 | > 100 | > 100 | > 100 | > 100 | > 100 | > 100 | > 100 | > 100 |  |  |  |  |  |  |  |  |  |  |
